Converted amounts (≈) assume the structure as drawn.
How the values were obtained:
[1] = test system: P388 murine leukemia; experiment: P388 In Vivo Murine Leukemia Assay; set-up: species or system CDF1 female mice; conditions: i.p., once on day 1; for % T/C (median survival time): >=125% significant; for MST: control MST 9.5 days; for Average Wgt. change in g (day 4): control 1.1; for No. Mice alive on day 5/total: control 10/10
Description: The test protocol involved CDF1 female mice implanted intraperitoneally with a tumor inoculum of 10^6 ascites cells of P388 murine leukemia and treated with various doses of test compound. The compound was administered by intraperitoneal injection on a certain dosage schedule, i.e. test drug given once on day one, the day of tumor inoculation. Groups of four mice were used for each dosage amount. A group of ten saline-treated control mice was employed.
The test compound was dissolved in a mixture of water and ethanol. Death or survival of the treated and non-treated mice was recorded daily, and the median survival time (MST) in days was calculated for the test (T) and control (C) groups. […] Mice weighing 20 g each were employed and a loss in weight of up to about 2 grams was not considered excessive.

[2] = test system: pathogenic bacteria; experiment: Antimicrobial activity (overall); assay type: cell-based
Description: (§1) Antimicrobial activity of N-acetylesperamicin A1 was determined for a variety of bacteria by the serial two-fold agar dilution method. Nutrient agar medium was used.

[3] = test system: P. aeruginosa/ATCC 23389 A20235; experiment: Antimicrobial activity, serial two-fold agar dilution; assay type: cell-based; conditions: Pseudomonas aeruginosa, ATCC23389; nutrient agar medium
Description: as §1

[4] = test system: P. vulgaris A21559; experiment: as above; assay type: cell-based; conditions: Proteus vulgaris, nutrient agar medium
Description: as §1

[5] = test system: P. aeruginosa A9843; experiment: as above; assay type: cell-based; conditions: Pseudomonas aeruginosa, nutrient agar medium
Description: as §1

[6] = test system: S. faecalis A20688; experiment: as above; assay type: cell-based; conditions: Enterococcus faecalis, nutrient agar medium
Description: as §1

[7] = test system: S. aureus A9537; experiment: as above; assay type: cell-based; conditions: Staphylococcus aureus, nutrient agar medium
Description: as §1

[8] = test system: S. aureus/NCCLS strain A20698; experiment: as above; assay type: cell-based; conditions: Staphylococcus aureus; nutrient agar medium
Description: as §1

[9] = test system: K. pneumoniae A9664; experiment: as above; assay type: cell-based; conditions: Klebsiella pneumoniae, nutrient agar medium
Description: as §1

[10] = test system: S. aureus/ATCC 29213 A24407; experiment: as above; assay type: cell-based; conditions: Staphylococcus aureus, ATCC29213; nutrient agar medium
Description: as §1

[11] = test system: S. faecalis/ATCC 33186 A15708; experiment: as above; assay type: cell-based; conditions: Enterococcus faecalis, ATCC33186; nutrient agar medium
Description: as §1

[12] = test system: B. subtilis/ATCC 6633 A9506-A; experiment: as above; assay type: cell-based; conditions: Bacillus subtilis, ATCC6633; nutrient agar medium
Description: as §1

[13] = test system: P. aeruginosa/ATCC 27853 A21508; experiment: as above; assay type: cell-based; conditions: Pseudomonas aeruginosa, ATCC27853; nutrient agar medium
Description: as §1

[14] = test system: S. faecalis/ATCC 29218 A25707; experiment: as above; assay type: cell-based; conditions: Enterococcus faecalis, ATCC29218; nutrient agar medium
Description: as §1

[15] = test system: E. coli/NCCLS strain A20697; experiment: as above; assay type: cell-based; conditions: Escherichia coli; nutrient agar medium
Description: as §1

[16] = test system: K. pneumoniae A20468; experiment: as above; assay type: cell-based; conditions: Klebsiella pneumoniae, nutrient agar medium
Description: as §1

[17] = test system: E. coli A15119; experiment: as above; assay type: cell-based; conditions: Escherichia coli, nutrient agar medium
Description: as §1

[18] = test system: HCT/VP35; experiment: In vitro cytotoxicity assay; assay type: cell-based; conditions: Homo sapiens; HCT/VP35, etoposide-resistant; cell growth inhibition; values <500 mcg/ml positive indicator of activity
Description: (§2) N-Acetylesperamicin A1 was also tested in the in vitro cytotoxicity assay. This assay involves growing various mammalian tumor cells, including human tumor cells, on microtiter plates employing established tissue culture methods. The concentration of compound required to inhibit cell growth by 50% (IC50) was then determined by a four-fold serial dilution technique. The validity of the method has been supported by a report published in the "Proceedings of the American Association for Cancer Research", Vol. 25, 328, p. 1891 (1984). Tumor cells of the following types were employed: B16-F10 murine melanoma, Moser human colon, and three human colon tumor cell lines, namely HCT-116, HCT-VM34 and HCT/VP35, the latter two being resistant to teniposide (VM) and etoposide (VP).

[19] = test system: B16-F10 murine melanoma; experiment: In vitro cytotoxicity assay; assay type: cell-based; conditions: Mus musculus, cell growth inhibition, four-fold serial dilution, values <500 mcg/ml positive indicator of activity
Description: as §2

[20] = test system: Moser human colon; experiment: In vitro cytotoxicity assay; assay type: cell-based; conditions: cell growth inhibition, four-fold serial dilution, values <500 mcg/ml positive indicator of activity
Description: as §2

[21] = test system: HCT-116; experiment: In vitro cytotoxicity assay; assay type: cell-based; conditions: Homo sapiens, cell growth inhibition, four-fold serial dilution, values <500 mcg/ml positive indicator of activity
Description: as §2

[22] = test system: HCT/VM34; experiment: In vitro cytotoxicity assay; assay type: cell-based; conditions: Homo sapiens; HCT/VM34, teniposide-resistant; cell growth inhibition; values <500 mcg/ml positive indicator of activity
Description: as §2

## C=C(OC)C(=O)Nc1cc(OC)c(OC)cc1C(=O)OC1CC(OC2C(=O)C(NC(=O)OC)=C3C(=CCSSSC)C2(O)C#CC=CC#CC3OC2OC(C)C(NOC3CC(O)C(SC)C(C)O3)C(O)C2OC2CC(OC)C(N(C(C)=O)C(C)C)CO2)OC(C)C1O (stereo not shown) [N-Acetylesperamicin A1]
[1]; 0.0016 mg/kg
  % T/C (median survival time): 147%
  MST: 14.0 days
  Average Wgt. change in g (day 4): -0.5 g
  No. Mice alive on day 5/total: 6/6
[1]; 0.0032 mg/kg
  % T/C (median survival time): 153%
  MST: 14.5 days
  Average Wgt. change in g (day 4): -0.2 g
  No. Mice alive on day 5/total: 6/6
[1]; 0.0064 mg/kg
  % T/C (median survival time): 147%
  MST: 14.0 days
  Average Wgt. change in g (day 4): -1.7 g
  No. Mice alive on day 5/total: 6/6
[1]; 0.0128 mg/kg
  % T/C (median survival time): 179%
  MST: 17.0 days
  Average Wgt. change in g (day 4): -2.2 g
  No. Mice alive on day 5/total: 6/6
[1]; 0.0256 mg/kg
  % T/C (median survival time): 63%
  MST: 6.0 days
  Average Wgt. change in g (day 4): -3.1 g
  No. Mice alive on day 5/total: 4/6
[1]; 0.0512 mg/kg
  % T/C (median survival time): 63%
  MST: 6.0 days
  Average Wgt. change in g (day 4): -2.9 g
  No. Mice alive on day 5/total: 4/6
[1]; 0.0896 mg/kg
  % T/C (median survival time): TOX
  MST: TOX
  Average Wgt. change in g (day 4): -3.4 g
  No. Mice alive on day 5/total: 0/6
[2]
  Antibacterial activity (in words): showed activity against a variety of pathogenic bacteria
[3]
  MIC: 125 µg/mL (≈ 91.4 µM)
[4]
  MIC: 125 µg/mL (≈ 91.4 µM)
[5]
  MIC: > 125 µg/mL
[6]
  MIC: 0.03 µg/mL (≈ 0.0219 µM)
[7]
  MIC: 0.008 µg/mL (≈ 0.00585 µM)
[8]
  MIC: 0.016 µg/mL (≈ 0.0117 µM)
[9]
  MIC: 32 µg/mL (≈ 23.4 µM)
[10]
  MIC: 0.03 µg/mL (≈ 0.0219 µM)
[11]
  MIC: 0.016 µg/mL (≈ 0.0117 µM)
[12]
  MIC: 0.03 µg/mL (≈ 0.0219 µM)
[13]
  MIC: > 125 µg/mL
[14]
  MIC: 0.016 µg/mL (≈ 0.0117 µM)
[15]
  MIC: 8 µg/mL (≈ 5.85 µM)
[16]
  MIC: > 125 µg/mL
[17]
  MIC: 32 µg/mL (≈ 23.4 µM)
[18]
  IC50: 0.0271 µg/mL (≈ 0.0198 µM)
[19]
  IC50: 0.0522 µg/mL (≈ 0.0382 µM)
[20]
  IC50: 1 µg/mL (≈ 0.731 µM)
[21]
  IC50: 0.0135 µg/mL (≈ 0.00987 µM)
[22]
  IC50: 0.3 µg/mL (≈ 0.219 µM)

From patent publication US4837206A, “Esperamicin derivatives” (Bristol-Myers Company, priority 1987, dated 1989)
